Source: patent publication US10201586B2 (dated 2019)
Read-outs that look alike come from different tables or passages of the source. One block for each molecule: values may come before it. Where a SMILES comes first, the peptide text is derived from it. Bridges are numbered along the chain shown (N, C = ends). [ ]: non-standard residue; d: D form. NMeF = CN[C@@H](Cc1ccccc1)C(=O)O; β3hD = NC(CC(=O)O)CC(=O)O; Aib = CC(C)(N)C(=O)O; Sar = CNCC(=O)O

Tests used:
[1] = target: T1, TFPI (Homo sapiens, UniProt P10646); assay: Progress Curves of Inhibition of FXa | % Inhibit (2.5µM)
[2] = target: T1, TFPI; assay: Extrinsic Tenase Inhibition by TFPI | % Inhibit (2.5µM)
[3] = target: T1, TFPI; assay: % Inhibition @ 2.5µM
[4] = target: T1, TFPI; assay: Extrinsic Tenase Inhibition assay | % Inhibition @ 2.5µM
[5] = target: T1, TFPI; assay: FXa Inhibition assay | EC50 (µM)
Target sequence in this assay (P10646 29-304 limits assumed): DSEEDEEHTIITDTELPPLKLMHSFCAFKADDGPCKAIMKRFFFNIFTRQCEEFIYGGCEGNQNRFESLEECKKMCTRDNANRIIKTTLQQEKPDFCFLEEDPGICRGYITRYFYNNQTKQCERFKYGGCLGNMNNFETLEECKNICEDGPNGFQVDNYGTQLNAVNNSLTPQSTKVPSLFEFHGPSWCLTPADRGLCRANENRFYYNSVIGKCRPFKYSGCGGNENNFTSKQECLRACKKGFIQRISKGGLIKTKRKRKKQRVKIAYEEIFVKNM

[6] = target: T1, TFPI; assay: Extrinsic Tenase Inhibition assay | % Inhibition @ 2.5µM; settings: read-out: Extrinsic Tenase Inhibition assay | % Inhibition @ […]
Target sequence in this assay (P10646 29-304 limits assumed): as above

[7] = target: T1, TFPI; assay: as above; remark: listed apart in the source
[8] = target: T1, TFPI; assay: % Inhibition @ 2.5µM; remark: listed apart in the source
[9] = target: T1, TFPI; assay: Extrinsic Tenase Inhibition assay | EC50 (µM)
Target sequence in this assay (P10646 29-304 limits assumed): as above

[10] = target: T1, TFPI; assay: % Inhibition @ 2.5µM; settings: read-out: % Inhibition @ […]
Target sequence in this assay (P10646 29-304 limits assumed): as above

[11] = target: T2, human TFPI-1 (Homo sapiens, UniProt P10646); assay: BIAcore surface plasmon resonance assay; format: binding
T2 construct: human TFPI-1 (residues 29-282 fused at the C-terminus to a 10 His-tag); purchased R&D Systems 2974-PI

[12] = target: T1, TFPI; assay: IC50 Mean (nM]
Target sequence in this assay (P10646 29-304 limits assumed): as above

[13] = target: T1, TFPI; assay: % Inhibition @ 2.5µM; settings: read-out: % Inhibition @ […]; remark: listed apart in the source
Target sequence in this assay (P10646 29-304 limits assumed): as above

[14] = target: T1, TFPI; assay: % Inhibition @ 2.5µM; settings: read-out: % Inhibition @ […]; remark: listed apart in the source
[15] = target: T1, TFPI; assay: Extrinsic Tenase Inhibition assay | % Inhibition @ 2.5µM; settings: read-out: Extrinsic Tenase Inhibition assay | % Inhibition @ […]; remark: listed apart in the source
[16] = target: T1, TFPI; assay: Extrinsic Tenase Inhibition by TFPI | EC50 (µM)
[17] = target: T1, TFPI; assay: Progress Curves of Inhibition of FXa | EC50 (µM)
[18] = target: T1, TFPI; assay: koff (1/s); settings: read-out: koff (1/s)
[19] = target: T1, TFPI; assay: BiaCore | kon (1/Ms); settings: read-out: BiaCore | kon (1/Ms)
[20] = target: T1, TFPI; assay: KD (M)
[21] = target: T1, TFPI; assay: % Inhibition @ 2.5µM; remark: listed apart in the source
[22] = target: T1, TFPI; assay: Extrinsic Tenase Inhibition assay | % Inhibition @ 2.5µM; remark: listed apart in the source
[23] = target: T1, TFPI; assay: Extrinsic Tenase Inhibition assay | EC50 (µM); remark: listed apart in the source
[24] = target: T1, TFPI; assay: Extrinsic Tenase Inhibition assay | % Inhibition @ 2.5µM; remark: listed apart in the source

T2 sequence (P10646 29-282): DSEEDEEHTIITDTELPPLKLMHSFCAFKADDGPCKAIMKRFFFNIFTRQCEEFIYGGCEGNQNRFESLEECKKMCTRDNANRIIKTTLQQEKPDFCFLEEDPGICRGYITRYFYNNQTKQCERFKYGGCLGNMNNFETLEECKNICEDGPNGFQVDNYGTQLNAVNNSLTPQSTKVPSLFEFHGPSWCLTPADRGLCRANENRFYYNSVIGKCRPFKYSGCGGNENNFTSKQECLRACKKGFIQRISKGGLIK

Molecule: Ac-SRYKWFSGMRDMKGTMSSVWVKF-NH2 (SEQ ID NO: 1229) [JBT0417]
- Progress Curves of Inhibition of FXa | % Inhibit ([…]) [1]: 2%
- Extrinsic Tenase Inhibition by TFPI | % Inhibit ([…]) [2]: 11%
- % Inhibition @ […] [3]: 0%

Molecule: Ac-FQSK-Nmg-NVFVTGYFERL-Aib-AKL-NH2 (SEQ ID NO: 165) (Ac-FQSK[Sar]NVFVTGYFERL[Aib]AKL-NH2; SMILES CC(=O)N[C@@H](Cc1ccccc1)C(=O)N[C@@H](CCC(N)=O)C(=O)N[C@@H](CO)C(=O)N[C@@H](CCCCN)C(=O)N(C)CC(=O)N[C@@H](CC(N)=O)C(=O)N[C@H](C(=O)N[C@@H](Cc1ccccc1)C(=O)N[C@H](C(=O)N[C@H](C(=O)NCC(=O)N[C@@H](Cc1ccc(O)cc1)C(=O)N[C@@H](Cc1ccccc1)C(=O)N[C@@H](CCC(=O)O)C(=O)N[C@@H](CCCNC(=N)N)C(=O)N[C@@H](CC(C)C)C(=O)NC(C)(C)C(=O)N[C@@H](C)C(=O)N[C@@H](CCCCN)C(=O)N[C@@H](CC(C)C)C(N)=O)[C@@H](C)O)C(C)C)C(C)C) [JBT1585]
- Extrinsic Tenase Inhibition assay | % Inhibition @ […] [4]: 48%

Molecule: Ac-FQSKGNVFVFGYF-bE-RLRAKL-NH2 (SEQ ID NO: 272) (Ac-FQSKGNVFVFGYF[β3hD]RLRAKL-NH2; SMILES CC(=O)N[C@@H](Cc1ccccc1)C(=O)N[C@@H](CCC(N)=O)C(=O)N[C@@H](CO)C(=O)N[C@@H](CCCCN)C(=O)NCC(=O)N[C@@H](CC(N)=O)C(=O)N[C@H](C(=O)N[C@@H](Cc1ccccc1)C(=O)N[C@H](C(=O)N[C@@H](Cc1ccccc1)C(=O)NCC(=O)N[C@@H](Cc1ccc(O)cc1)C(=O)N[C@@H](Cc1ccccc1)C(=O)N[C@@H](CC(=O)O)CC(=O)N[C@@H](CCCNC(=N)N)C(=O)N[C@@H](CC(C)C)C(=O)N[C@@H](CCCNC(=N)N)C(=O)N[C@@H](C)C(=O)N[C@@H](CCCCN)C(=O)N[C@@H](CC(C)C)C(N)=O)C(C)C)C(C)C) [JBT0528]
- Extrinsic Tenase Inhibition assay | % Inhibition @ […] [7]: 8%
- % Inhibition @ […] [8]: 25%

Molecule: Ac-SRYKWF[CGMADMKGTMSC]VWVKF-NH2 (SEQ ID NO: 1079) (Ac-SRYKWFCGMADMKGTMSCVWVKF-NH2; disulfide 7-18; SMILES CSCC[C@@H]1NC(=O)CNC(=O)[C@@H](NC(=O)[C@H](Cc2ccccc2)NC(=O)[C@H](Cc2c[nH]c3ccccc23)NC(=O)[C@H](CCCCN)NC(=O)[C@H](Cc2ccc(O)cc2)NC(=O)[C@H](CCCNC(=N)N)NC(=O)[C@H](CO)NC(C)=O)CSSC[C@@H](C(=O)N[C@H](C(=O)N[C@@H](Cc2c[nH]c3ccccc23)C(=O)N[C@H](C(=O)N[C@@H](CCCCN)C(=O)N[C@@H](Cc2ccccc2)C(N)=O)C(C)C)C(C)C)NC(=O)[C@H](CO)NC(=O)[C@H](CCSC)NC(=O)[C@H]([C@@H](C)O)NC(=O)CNC(=O)[C@H](CCCCN)NC(=O)[C@H](CCSC)NC(=O)[C@H](CC(=O)O)NC(=O)[C@H](C)NC1=O) [JBT0446]
- % Inhibition @ […] [21]: 50%
- Extrinsic Tenase Inhibition assay | % Inhibition @ […] [22]: 46%

Molecule: CC(=O)N(C)[C@@H](Cc1ccccc1)C(=O)N[C@@H](CCC(N)=O)C(=O)N[C@@H](CO)C(=O)N[C@@H](CCCCN)C(=O)NCC(=O)N[C@@H](CC(N)=O)C(=O)N[C@H](C(=O)N[C@@H](Cc1ccccc1)C(=O)N[C@H](C(=O)N[C@@H](Cc1ccccc1)C(=O)NCC(=O)N[C@@H](Cc1ccc(O)cc1)C(=O)N[C@@H](Cc1ccccc1)C(=O)N[C@@H](CCC(=O)O)C(=O)N[C@@H](CCCNC(=N)N)C(=O)N[C@@H](CC(C)C)C(=O)N[C@@H](CCCNC(=N)N)C(=O)N[C@@H](C)C(=O)N[C@@H](CCCCN)C(=O)N[C@@H](CC(C)C)C(N)=O)C(C)C)C(C)C [JBT0497] (Ac-[NMeF]QSKGNVFVFGYFERLRAKL-NH2)
- EC50 [23]: 1130 nM

Further lines, results first:

- EC50 [5]: 210 nM
- inhibition at […] [6]: 32%
Molecule: CC(=O)N[C@@H](Cc1ccccc1)C(=O)N[C@@H](CCC(N)=O)C(=O)N[C@@H](CO)C(=O)N[C@@H](CCCCN)C(=O)N(C)CC(=O)N[C@@H](CC(N)=O)C(=O)N[C@H](C(=O)N[C@@H](Cc1ccccc1)C(=O)N[C@H](C(=O)N[C@H](C(=O)NCC(=O)N[C@@H](Cc1ccc(O)cc1)C(=O)N[C@@H](Cc1ccccc1)C(=O)N[C@@H](CCC(=O)O)C(=O)N[C@@H](CCCNC(=N)N)C(=O)N[C@@H](CC(C)C)C(=O)N[C@@H](CCCNC(=N)N)C(=O)N[C@@H](C)C(=O)N[C@@H](CCCCN)C(=O)N[C@@H](CC(C)C)C(N)=O)[C@@H](C)O)C(C)C)C(C)C [JBT1155] (Ac-FQSK[Sar]NVFVTGYFERLRAKL-NH2)

- EC50 [9]: 1920 nM
- inhibition at […] [10]: 45%
Molecule: CC(=O)N[C@@H](Cc1ccccc1)C(=O)N[C@@H](CCC(N)=O)C(=O)N[C@@H](CO)C(=O)N[C@@H](CCCCN)C(=O)N(C)CC(=O)N[C@@H](CC(N)=O)C(=O)N[C@H](C(=O)N[C@@H](Cc1ccccc1)C(=O)N[C@H](C(=O)N[C@@H](Cc1ccccc1)C(=O)NCC(=O)N[C@@H](Cc1ccc(O)cc1)C(=O)N[C@@H](Cc1ccccc1)C(=O)N[C@@H](C)C(=O)N[C@@H](CCCNC(=N)N)C(=O)N[C@@H](CC(C)C)C(=O)N[C@@H](CCCNC(=N)N)C(=O)N[C@@H](C)C(=O)N[C@@H](CCCCN)C(=O)N[C@@H](CC(C)C)C(N)=O)C(C)C)C(C)C [JBT0780] (Ac-FQSK[Sar]NVFVFGYFARLRAKL-NH2)

- koff [11]: 0.014 s⁻¹
- kon [11]: 500000 M⁻¹ s⁻¹
- IC50 [12]: 63 nM
- inhibition at […] [13]: 59%
Molecule: CC(=O)N[C@@H](Cc1ccccc1)C(=O)N[C@@H](CCC(N)=O)C(=O)N[C@@H](CO)C(=O)N[C@@H](CCCCN)C(=O)N[C@@H](CC(N)=O)C(=O)N[C@@H](CC(N)=O)C(=O)N[C@H](C(=O)N[C@@H](Cc1ccccc1)C(=O)N[C@H](C(=O)N[C@@H](Cc1ccccc1)C(=O)NCC(=O)N[C@@H](Cc1ccc(O)cc1)C(=O)N[C@@H](Cc1ccccc1)C(=O)N[C@@H](CCC(=O)O)C(=O)N[C@@H](CCCNC(=N)N)C(=O)N[C@@H](CC(C)C)C(=O)N[C@@H](CCCNC(=N)N)C(=O)N[C@@H](C)C(=O)N[C@@H](CCCCN)C(=O)N[C@@H](CC(C)C)C(N)=O)C(C)C)C(C)C [JBT0297] (Ac-FQSKNNVFVFGYFERLRAKL-NH2)

- inhibition at […] [14]: 11%
- inhibition at […] [15]: 19%
Molecule: CSCC[C@@H]1NC(=O)CNC(=O)[C@@H](NC(=O)[C@H](Cc2ccccc2)NC(=O)[C@H](Cc2c[nH]c3ccccc23)NC(=O)[C@H](CCCCN)NC(=O)[C@H](Cc2ccc(O)cc2)NC(=O)[C@H](CCCNC(=N)N)NC(=O)[C@H](CO)NC(=O)[C@H](CCCCN)NC(=O)[C@H](CCCCN)NC(C)=O)CSSC[C@@H](C(=O)N[C@H](C(=O)N[C@@H](Cc2c[nH]c3ccccc23)C(=O)N[C@@H](CCCCN)C(=O)N[C@@H](CCCCN)C(N)=O)C(C)C)NC(=O)[C@H](CO)NC(=O)[C@H](CCSC)NC(=O)[C@H]([C@@H](C)O)NC(=O)CNC(=O)[C@H](CCCCN)NC(=O)[C@H](CCSC)NC(=O)[C@H](CC(=O)O)NC(=O)[C@H](CCCNC(=N)N)NC1=O [JBT0250] (Ac-KKSRYKWFCGMRDMKGTMSCVWKK-NH2; disulfide 9-20)

- EC50 [16]: 6400 nM
- EC50 [17]: 18800 nM
- koff [18]: 0.0425 s⁻¹
- kon [19]: 178000 M⁻¹ s⁻¹
- Kd [20]: 238 nM
Molecule: CSCC[C@@H]1NC(=O)CNC(=O)[C@@H](NC(=O)[C@H](Cc2ccccc2)NC(=O)[C@H](Cc2c[nH]c3ccccc23)NC(=O)[C@H](CCCCN)NC(=O)[C@H](Cc2ccc(O)cc2)NC(=O)[C@H](CCCNC(=N)N)NC(=O)[C@H](CO)NC(=O)[C@H](C)NC(=O)CNC(=O)[C@H](CO)NC(C)=O)CSSC[C@@H](C(=O)N[C@H](C(=O)N[C@@H](Cc2c[nH]c3ccccc23)C(=O)N[C@H](C(=O)N[C@@H](CCCCN)C(N)=O)C(C)C)C(C)C)NC(=O)[C@H](CO)NC(=O)[C@H](CCSC)NC(=O)[C@H]([C@@H](C)O)NC(=O)CNC(=O)[C@H](CCCCN)NC(=O)[C@H](CCSC)NC(=O)[C@H](CC(=O)O)NC(=O)[C@H](CCCNC(=N)N)NC1=O [JBT0320] (Ac-SGASRYKWFCGMRDMKGTMSCVWVK-NH2; disulfide 10-21)

- Extrinsic Tenase Inhibition assay | % Inhibition @ […] [24]: 0%
- % Inhibition @ […] [8]: 14%
Molecule: Ac-FQSKGNVFVFGYFERLR-bAla-KL-NH2 (SEQ ID NO: 423) [JBT0532]
